The record followed here is patent US9278982B2, “Targeting human thymidylate kinase induces DNA repair toxicity in malignant tumor cells” (NATIONAL YANG-MING UNIVERSITY, priority 2010, dated 2016).

The target in assay [1] is T1, TMPK (Homo sapiens, UniProt P23919).
T1 sequence (P23919 1-212): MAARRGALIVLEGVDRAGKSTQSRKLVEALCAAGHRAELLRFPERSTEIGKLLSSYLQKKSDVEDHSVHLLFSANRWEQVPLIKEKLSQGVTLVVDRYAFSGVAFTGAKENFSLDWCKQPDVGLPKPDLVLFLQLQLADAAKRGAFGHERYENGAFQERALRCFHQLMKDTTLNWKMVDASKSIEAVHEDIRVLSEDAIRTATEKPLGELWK
As to the kind of experiment: Luciferase-coupled TMPK assay. It is filed as biochemical. Further details: GST (N, cleaved yes); made in house; host or cells: E. coli JM109 (pGEX-2T-hTMPK). The conditions noted are these: purified hTMPK protein (0.5 μg), 10 min preincubation; read-out: IC50 against hTMPK. As to the method:
FIG. 12. Identification of a novel hTMPK inhibitor. (A) A screen of TMPK inhibitor by luciferase-coupled assay. (B) The chemical structures of YMU1 (compound 21) and related molecules. (C) Effect of YMU1 and derivative compounds on hTMPK inhibition using purified hTMPK protein (0.5 μg) with 10 min preincubation prior to reaction using luciferase-coupled TMPK analysis. (D) Effect of YMU1 on activity of purified TMPK (0.5 μg) and GST-hTK1 protein (5 μg) with 10 min preincubation prior to reaction. Data represent mean±s.d. (n=4) (E) Molecular models of the TMPK-YMU1 complex. Left panel: TMPK/ATP/Mg+2; right panel: TMPK/YMU1. The TMPK is represented in surface electrostatic potential (upper) and structural ribbon (lower). ATP and YMU1 are shown in green and blue stick, respectively, with colored atom (O, red; S, yellow; P, orange). TMP is shown in white backbone and Mg+2 in purple. Arrow indicates the position of Asp15.
Based on the functional requirement of TMPK in DNA repair specifically in tumor cells with elevated level of R2 expression, we searched for inhibitors of hTMPK that might be useful in selectively sensitizing tumor cells to doxorubicin. […] The synthetic procedure and structural elucidation of YMU1 (compound 21) are described in the Methods of the Invention section of the application.
The TMPK reaction was started by adding purified hTMPK in 50 μl of TMPK assay buffer (100 mM Tris-HCl, pH 7.5, 100 mM KCl, 10 mM MgCl2, 50 μM ATP and 100 μM dTMP) in 96 wells plate at 25° C. for 10 min and terminated by adding 200 μl of DTNB (100 μM), followed by transferring 10 μl of reaction solution to a white 96-wellplate containing 90 μl of luciferase assay buffer (50 mM Glycine, 0.5 mM EDTA and 5 mM EDTA, pH 7.0, 0.1 μg of luciferase, 50 μM luciferin and 0.1% BSA). The luminescence was measured with a luminescence counter (Packard).

The next assay deals with MDA-MB231 cells. As to the kind of experiment: Repair of doxorubicin-induced DNA lesions (γH2AX, Rad51, XRCC1 foci staining). The assay is classed as cell-based, human. As to the method: FIG. 14. Effect of YMU1 on genomic toxicity and DNA repair. […] After overnight, cells were exposed to doxorubicin and recovered. […]
For γH2AX, Rad51 and XRCC1 staining, cells were fixed with 4% paraformaldehyde for 30 min at room temperature and were incubated with TBS (50 mM Tris-HCl, pH 7.4, 150 mM NaCl) plus 0.3% Triton X-100 for 5 min. The coverslips were blocked with MAXblock™ (Active Motif) for 1 h at 37° C., followed by staining with primary antibodies: anti-γH2AX monoclonal antibody (1:1000), anti-Rad51 polyclonal antibody (1:500) or anti-XRCC1 monoclonal antibody (1:500) overnight at 4° C. After extensive washing, cells were stained with secondary antibodies and Hoechst 33342 for 1 h at room temperature. After mounting, cells were analyzed and photographed with a Carl Zeiss fluorescence microscope equipped with AxioCam digital camera and Axio Vision Rel. 4.8 imaging software.

The target in assay [2] is T2, purified human thymidylate kinase (Homo sapiens, UniProt P23919).
T2 construct: GST (N, cleaved yes); made in house; host or cells: E. coli JM109 (pGEX-2T-hTMPK)
T2 sequence (P23919 1-212): T1 sequence (P23919 1-212)
As to the kind of experiment: NADH-coupled TMPK assay (kinetic parameters). The assay is classed as biochemical. The conditions noted are these: for Ki: 10 min pre-incubation, average of three YMU1 concentrations. As to the method: The inhibitory mode of YMU1 was determined by pre-incubating different concentrations of YMU1 with purified hTMPK protein and measuring initial velocity using the conventional TMPK assay.
All reactions were performed in 96-well plates in an assay volume of 100 μl. The activity of hTMPK was measured at 25° C. using a modified NADH coupled colorimetric assay as described (Agarwal et al., 1978; Miyata et al., 2003; Ostermann et al., 2003), in which purified hTMPK was added to the buffer containing 100 mM Tris-HCl, pH 7.5, 100 mM KCl, 10 mM MgCl2, 0.5 mM phosphoenol pyruvate, 0.25 mM NADH, 5 units of lactate dehydrogenase, 4 units of pyruvate kinase, 1 mM ATP, and 200 μM dTMP. The change of NADH was measured by reading the absorbance at 340 nm. One unit of TMPK activity is defined as the conversion of 1 μmole of TMP to TDP per minute.

The target in assay [3] is T1, TMPK. As to the kind of experiment: In vitro TMPK inhibitory activity of TMPK inhibitor derivatives (inhibition yield). It is filed as biochemical. Further details: GST (N, cleaved yes); made in house; host or cells: E. coli JM109 (pGEX-2T-hTMPK), inferred. The conditions noted are these: 2 μM; n=3 or 6; read-out: inhibition yield, normalized to compound 21 (YMU1) = 100%. The text has this: Chemical structures of the different TMPK inhibitor derivatives tested for in vitro TMPK inhibitory activity and in vivo doxorubicin sensitization activity (in MDA-MB231 cells) are depicted below.

[4] abbreviates: YMU1 2 μM 72 h, doxorubicin exposure and recovery.

By IC50 is commonly meant the concentration needed to halve the response being measured. As a reminder, the Ki is a dissociation constant, usually derived from enzyme kinetics or from competition with a known ligand. A higher Ki goes with weaker binding. In general, Vmax refers to the top rate of the reaction or transport when substrate is in excess. What is called inhibition is the change of the read-out against control, counted positive when it falls. For the compound `CCOC(=O)N1CCN(C(=O)Cn2sc3nc(C)cc(C)c3c2=O)CC1` [compound 21, Ethyl 4-(2-(4,6-dimethyl-3-oxoisothiazolo[5,4-b]pyridin-2(3H)-yl)acetyl) piperazine-1-carboxylate], the IC50 at TMPK [1] stood at 610 ± 20 nM. The Rad51 foci entry with MDA-MB231 cells (setting [4]) was “persistent Rad51 foci”. The XRCC1 foci formation entry in the assay with MDA-MB231 cells (setting [4]) is on record as “increase in XRCC1 foci formation”. In addition, the “numbers of DNA lesions formation (γH2AX focus staining)” value with MDA-MB231 cells (YMU1 2 μM 72 h pre-treatment, doxorubicin 0.1 μM) was “did not affect numbers of DNA lesions formation”. For the same compound, the “cells still γH2AX-positive” value in the assay with MDA-MB231 cells (YMU1 2 μM 72 h pretreatment, recovery 48 h post-doxorubicin (0.1 μM) exposure) was “over 70%”. The Ki in assay [2] (ATP 1 mM, TMP varied 2~200 μM) stood at 220 ± 30 nM; in assay [2] (TMP 200 μM, ATP varied 5~1000 μM) it was 180 ± 60 nM. Further, the maximal velocity (Vmax) in assay [2] (ATP varied, YMU1 0.25 μM) is 212.0 ± 10.3 nmol/min/mg; in assay [2] (ATP varied, YMU1 0.5 μM), 94.8 ± 6.9 nmol/min/mg; in assay [2] (ATP varied, YMU1 1 μM), 55.7 ± 1.3 nmol/min/mg; in assay [2] (TMP varied, YMU1 0.125 μM) it was 258.9 ± 12.4 nmol/min/mg; in assay [2] (TMP varied, YMU1 0.25 μM), 180.6 ± 11.8 nmol/min/mg; in assay [2] (TMP varied, YMU1 0.5 μM), 91.8 ± 6.4 nmol/min/mg. The inhibition at 2 µM on TMPK [3] was determined as 100%.
